Values quoted from earlier work, collected in patent publication US20110038945A1, “Orally ingestable medicament and method for treating a heartburn inducing event or an acid reflux episode in a living human subject” (priority 2009, published 2011).

In the case of `COc1cc(N)c(Cl)cc1C(=O)NC1CCN(CCCOc2ccc(F)cc2)CC1OC` (centres unmarked) [cisapride], the deaths (included in the heart rhythm abnormality reports) is given as “more than 80 deaths” and the “reports of heart rhythm abnormalities” value (linked to the drug at recall from the U.S. market in 2000) is given as “more than 300 reports”.
